Some test systems named below: MOLT-4; SK-OV-3; SNB-75; HOP-62; CCRF-CEM; SK-MEL-28; LOX IMVI; Hs-578T; MCF7; U-251; SW-620; EKVX; A498; SK-MEL-2; A549; T47D; SN12C; HT-29; BT-549; NCI/ADR-RES.
Experiment in all cases: inhibition of tumour cell growth, NCI panel, 48 h

SMILES strings stand for the structures.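 1) Cells in 96-well plates. 2) Compound, 48 h, 5 concentrations. 3) Linear interpolation between surrounding doses. 4) Unreached endpoint = highest concentration. Abbreviation: GI50, concentration required for 50% inhibition of growth.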 Activity calls are given as the source filed them. Cut-off read from the data, not from the text of the source: active = GI50 up to about 1.1 µM and inactive = higher.

For the compound `COc1ccc(CC2C(=O)NC(C)C(=O)N(C)C3C(=O)N(C)C(Cc4ccc(O)c(c4)Oc4ccc(cc4)C3O)C(=O)NC(C)C(=O)NC(C)C(=O)N2C)cc1` (stereo not given), the GI50 in the experiment on MOLT-4 is 0.0162 µM (active); in the experiment with SK-OV-3 it was 0.0236 µM (active); in the experiment on SNB-75, 0.0137 µM (active); in the experiment on HOP-62, 0.0284 µM (active); in the experiment with CCRF-CEM, 0.0013 µM (active); in the experiment on SK-MEL-28, 0.00223 µM (active). The GI50 with LOX IMVI was 0.00225 µM (active); in the experiment on Hs-578T, 0.01 µM (active); with MCF7, 0.0125 µM (active); in the experiment on U-251, 0.00124 µM (active); in the experiment on SW-620 it was 0.0181 µM (active); with EKVX, 0.0261 µM (active). For the same compound, the GI50 in the experiment with A498 was 0.022 µM (active); in the experiment with SK-MEL-2, 0.0125 µM (active); in the experiment with A549, 0.0353 µM (active); in the experiment with T47D, < 0.01 µM (active); in the experiment on SN12C, 0.018 µM (active); with HT-29, 0.0178 µM (active). For the same compound, the GI50 is < 0.01 µM (active) in the experiment with BT-549 and 0.212 µM (active) in the experiment with NCI/ADR-RES.

Turning to `COC(=O)/C=C/c1cnc2c(c1)oc(=O)n2C`, the GI50 with MOLT-4, with SK-OV-3, in the experiment with SNB-75, in the experiment on HOP-62, in the experiment with CCRF-CEM and in the experiment on SK-MEL-28 was > 100 µM (inactive) throughout. The GI50 in the experiment on LOX IMVI, in the experiment on Hs-578T, with MCF7, in the experiment on U-251, with SW-620 and with EKVX was > 100 µM (inactive) in each case. Also, the GI50 with A498, in the experiment with SK-MEL-2, with A549, in the experiment on T47D, in the experiment on SN12C and in the experiment on HT-29 was > 100 µM (inactive) each time. The GI50 in the experiment on BT-549 and with NCI/ADR-RES was > 100 µM (inactive) each time.

Consider `C=CCOC1=C(OC(C)=O)C(=O)OC1C1COC(C)(C)O1` (stereo not given), for which the GI50 was 18.4 µM (inactive) in the experiment with MOLT-4; > 100 µM (inactive) in the experiment on SK-OV-3; > 36.3 µM (inactive) in the experiment with SNB-75; 29.4 µM (inactive) in the experiment on HOP-62; 21.4 µM (inactive) with CCRF-CEM; 17.3 µM (inactive) in the experiment on SK-MEL-28. The GI50 is 18.1 µM (inactive) in the experiment with LOX IMVI; 32.4 µM (inactive) in the experiment on Hs-578T; 28.2 µM (inactive) in the experiment with MCF7; 42.5 µM (inactive) in the experiment on U-251; 25.6 µM (inactive) in the experiment with SW-620; 27.5 µM (inactive) in the experiment with EKVX. Further, the GI50 is > 89.5 µM (inactive) with A498; > 52.6 µM (inactive) in the experiment on SK-MEL-2; > 73.5 µM (inactive) in the experiment on A549; 23.4 µM (inactive) with T47D; > 42.8 µM (inactive) with SN12C; 30.1 µM (inactive) with HT-29. The GI50 in the experiment on BT-549 was 43.1 µM (inactive); in the experiment with NCI/ADR-RES it was > 61.5 µM (inactive).

As to `Cc1cccc(/N=N/c2ccc(O)c(CN(C)C)c2)c1`, the GI50 in the experiment with MOLT-4 is 20 µM (inactive); with SK-OV-3, 41.7 µM (inactive); with SNB-75 it was 29 µM (inactive); in the experiment on HOP-62, 11.1 µM (inactive); with CCRF-CEM, 0.0753 µM (active); in the experiment on SK-MEL-28, 19.2 µM (inactive). In addition, the GI50 in the experiment on LOX IMVI was 5.41 µM (inactive); in the experiment with Hs-578T it was 16 µM (inactive); in the experiment with MCF7, 39.1 µM (inactive); in the experiment with U-251 it was 45.9 µM (inactive); in the experiment with SW-620 it was 18.2 µM (inactive); in the experiment on EKVX, 20.3 µM (inactive). The GI50 is 18.1 µM (inactive) in the experiment with A498; 20.7 µM (inactive) in the experiment on SK-MEL-2; 32.4 µM (inactive) in the experiment on A549; 11.5 µM (inactive) in the experiment on T47D; 62.4 µM (inactive) with SN12C; 17.5 µM (inactive) in the experiment with HT-29. Also, the GI50 in the experiment on BT-549 is 17.2 µM (inactive); with NCI/ADR-RES it was 16.9 µM (inactive).

For the compound `CCCCCCCCCCCCCCCCCCNc1ccn(C2OC(COP(=O)(O)OCC3OC(n4cc(C)c(=O)[nH]c4=O)CC3F)C(O)C2O)c(=O)n1` (stereo not given), the GI50 is 3.13 µM (inactive) in the experiment on MOLT-4; 8.63 µM (inactive) with SK-OV-3; 19.8 µM (inactive) with SNB-75; 9.75 µM (inactive) with HOP-62; 4.61 µM (inactive) in the experiment on CCRF-CEM; 8.87 µM (inactive) with SK-MEL-28. Besides, the GI50 is 7.59 µM (inactive) in the experiment on LOX IMVI; 11.1 µM (inactive) in the experiment with Hs-578T; 9.46 µM (inactive) in the experiment with MCF7; 7.26 µM (inactive) in the experiment on U-251; 5.86 µM (inactive) in the experiment with SW-620; 10.3 µM (inactive) in the experiment with EKVX. Further, the GI50 was 13.8 µM (inactive) in the experiment with A498; 9.14 µM (inactive) in the experiment on SK-MEL-2; 11.2 µM (inactive) with A549; 7.38 µM (inactive) in the experiment on T47D; 7.87 µM (inactive) with SN12C; 7.69 µM (inactive) with HT-29. The GI50 in the experiment with BT-549 was 5.19 µM (inactive); in the experiment with NCI/ADR-RES it was 30.9 µM (inactive).

Take `O=[N+]([O-])c1ccc2sc(/C=N/c3ccccn3)cc2c1`: the GI50 in the experiment with MOLT-4 was 19.7 µM (inactive); in the experiment with SK-OV-3, > 100 µM (inactive); with SNB-75, > 100 µM (inactive); in the experiment on HOP-62, > 100 µM (inactive); in the experiment with CCRF-CEM it was 33.8 µM (inactive); with SK-MEL-28, > 100 µM (inactive). The GI50 with LOX IMVI was 31.9 µM (inactive); in the experiment with Hs-578T, 47.6 µM (inactive); in the experiment with MCF7, 30.4 µM (inactive); in the experiment with U-251, 33.7 µM (inactive); in the experiment with SW-620, 21.7 µM (inactive); with EKVX, 69 µM (inactive). Moreover, the GI50 in the experiment on A498 is > 100 µM (inactive); with SK-MEL-2, > 100 µM (inactive); in the experiment with A549, > 100 µM (inactive); in the experiment with T47D, 26 µM (inactive); with SN12C, 88.7 µM (inactive); with HT-29, > 100 µM (inactive). Moreover, the figures for the GI50 in the experiment on BT-549 and in the experiment with NCI/ADR-RES were 85.1 µM (inactive) and 97.7 µM (inactive), respectively.

`NC(=O)c1c[se]c(C2OC(CO)C(O)C2O)n1` (stereo not given): the GI50 in the experiment with MOLT-4 was 0.568 µM (active); in the experiment with SK-OV-3, > 29 µM (inactive); with SNB-75, > 59 µM (inactive); in the experiment on HOP-62, 10.2 µM (inactive); in the experiment with CCRF-CEM, 0.875 µM (active); in the experiment on SK-MEL-28, 2.61 µM (inactive). For the same compound, the GI50 was 32.1 µM (inactive) in the experiment with LOX IMVI; > 100 µM (inactive) in the experiment on Hs-578T; 8.67 µM (inactive) with MCF7; 0.953 µM (active) with U-251; 1.47 µM (inactive) in the experiment with SW-620; > 79.1 µM (inactive) in the experiment on EKVX. Also, the GI50 is 44 µM (inactive) in the experiment with A498; > 100 µM (inactive) in the experiment on SK-MEL-2; 8.67 µM (inactive) in the experiment with A549; > 100 µM (inactive) with T47D; > 84.7 µM (inactive) in the experiment with SN12C; 3.55 µM (inactive) in the experiment with HT-29. In addition, the GI50 in the experiment with BT-549 is 8.09 µM (inactive); in the experiment on NCI/ADR-RES, 9.16 µM (inactive).

Turning to `O=C(O)CN1CCNCCN(CC(=O)O)CC1`, the GI50 in the experiment on MOLT-4 is 4.81 µM (inactive); in the experiment with SK-OV-3, 38.4 µM (inactive); in the experiment on SNB-75 it was 12.3 µM (inactive); with HOP-62 it was > 27.7 µM (inactive); in the experiment on CCRF-CEM, 5.47 µM (inactive); with SK-MEL-28 it was 33.8 µM (inactive). In addition, the GI50 with LOX IMVI was 17.3 µM (inactive); in the experiment on Hs-578T, > 66.1 µM (inactive); in the experiment on MCF7, 3.73 µM (inactive); with U-251, 28.2 µM (inactive); in the experiment on SW-620 it was 3.4 µM (inactive); with EKVX, 12.5 µM (inactive). In addition, the GI50 with A498 was 3.42 µM (inactive); with SK-MEL-2, 26.4 µM (inactive); in the experiment on A549, 14.8 µM (inactive); with T47D, > 100 µM (inactive); in the experiment with SN12C it was > 100 µM (inactive); in the experiment on HT-29, 2.38 µM (inactive). In addition, the GI50 was > 100 µM (inactive) in the experiment with BT-549 and 2.44 µM (inactive) in the experiment on NCI/ADR-RES.

`O=C(Cn1c(=O)oc2ccc(C(=O)c3ccccc3Cl)cc21)c1ccc([N+](=O)[O-])cc1`: the GI50 in the experiment with MOLT-4 was 8.2 µM (inactive); in the experiment with SK-OV-3, 21.9 µM (inactive); with SNB-75, 0.824 µM (active); in the experiment on HOP-62, 25.1 µM (inactive); in the experiment with CCRF-CEM, 4.29 µM (inactive); in the experiment with SK-MEL-28, 37.8 µM (inactive). Also, the GI50 in the experiment with LOX IMVI is 17 µM (inactive); in the experiment with Hs-578T, 37.2 µM (inactive); in the experiment with MCF7, 22.9 µM (inactive); in the experiment with U-251, 29.9 µM (inactive); in the experiment on SW-620 it was 26.8 µM (inactive); in the experiment on EKVX, 24.2 µM (inactive). The GI50 in the experiment with A498 is 30.1 µM (inactive); with SK-MEL-2 it was 20.4 µM (inactive); with A549, 25.2 µM (inactive); with T47D, 8.11 µM (inactive); in the experiment with SN12C, 24.5 µM (inactive); in the experiment on HT-29, 24.2 µM (inactive). For the same compound, the results for the GI50 in the experiment with BT-549 and with NCI/ADR-RES were 19.1 µM (inactive) and 22.6 µM (inactive), respectively.

On to `S=P(C1CCCCC1)(C1CCCCC1)C(c1cccnc1)N1CCCC1` (stereo not given), for which the GI50 in the experiment on MOLT-4 is 24 µM (inactive); in the experiment with SK-OV-3, 81.8 µM (inactive); in the experiment on SNB-75, 19.4 µM (inactive); in the experiment on HOP-62, 16.3 µM (inactive); in the experiment with CCRF-CEM, 15.8 µM (inactive); in the experiment with SK-MEL-28 it was > 100 µM (inactive). The GI50 was 7.18 µM (inactive) with LOX IMVI; 35.4 µM (inactive) with Hs-578T; > 100 µM (inactive) in the experiment with MCF7; 20.2 µM (inactive) in the experiment with U-251; 36.2 µM (inactive) in the experiment on SW-620; 19.1 µM (inactive) in the experiment on EKVX. Besides, the GI50 in the experiment with A498 is 27.7 µM (inactive); in the experiment with SK-MEL-2, 20.9 µM (inactive); in the experiment on A549, 17.8 µM (inactive); in the experiment with T47D, 31.9 µM (inactive); in the experiment on SN12C, 18.2 µM (inactive); in the experiment with HT-29 it was 33.8 µM (inactive). Besides, the GI50 in the experiment on BT-549 was 18.5 µM (inactive); in the experiment with NCI/ADR-RES, 19 µM (inactive).
